The values that follow come from patent US7001907B2, “Peptide-containing α-ketoamide cysteine and serine protease inhibitors” (Cephaon, Inc., priority 1997, dated 2006).

This assay has as its target T1, Recombinant human calpain I (Homo sapiens, UniProt P07384).
T1 construct: made in house
T1 sequence (P07384 1-714): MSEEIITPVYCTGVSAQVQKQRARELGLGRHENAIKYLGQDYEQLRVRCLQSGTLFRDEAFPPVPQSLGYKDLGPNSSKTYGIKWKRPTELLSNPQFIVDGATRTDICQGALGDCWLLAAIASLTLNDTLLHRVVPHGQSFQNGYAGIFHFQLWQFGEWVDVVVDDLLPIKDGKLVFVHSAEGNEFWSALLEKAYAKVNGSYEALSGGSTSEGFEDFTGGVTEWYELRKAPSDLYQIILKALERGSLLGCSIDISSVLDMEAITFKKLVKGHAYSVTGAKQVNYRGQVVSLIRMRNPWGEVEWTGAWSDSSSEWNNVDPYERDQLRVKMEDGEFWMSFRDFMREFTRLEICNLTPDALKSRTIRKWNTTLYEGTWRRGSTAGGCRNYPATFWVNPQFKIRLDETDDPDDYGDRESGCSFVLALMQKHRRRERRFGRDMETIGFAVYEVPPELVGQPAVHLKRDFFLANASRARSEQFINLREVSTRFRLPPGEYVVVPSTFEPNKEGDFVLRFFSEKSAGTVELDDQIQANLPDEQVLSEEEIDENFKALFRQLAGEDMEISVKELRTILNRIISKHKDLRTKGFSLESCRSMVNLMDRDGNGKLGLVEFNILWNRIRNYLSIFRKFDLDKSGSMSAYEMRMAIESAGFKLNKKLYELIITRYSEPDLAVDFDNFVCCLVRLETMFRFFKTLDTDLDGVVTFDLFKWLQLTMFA
T1 sequence (P04632 1-268 partner): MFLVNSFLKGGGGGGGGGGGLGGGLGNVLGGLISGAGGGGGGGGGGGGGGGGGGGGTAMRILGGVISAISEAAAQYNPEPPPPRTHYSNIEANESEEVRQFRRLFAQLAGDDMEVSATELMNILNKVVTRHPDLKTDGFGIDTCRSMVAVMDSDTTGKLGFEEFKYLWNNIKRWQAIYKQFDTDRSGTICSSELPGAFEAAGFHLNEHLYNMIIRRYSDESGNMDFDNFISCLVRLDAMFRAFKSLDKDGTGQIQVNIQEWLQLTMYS
Kind of assay: Inhibition of cysteine protease activity: calpain I, Succ-Leu-Tyr-MNA substrate hydrolysis. In kind it is biochemical. How it is done: To evaluate inhibitory activity, stock solutions (40 times concentrated) of each compound to be tested were prepared in 100% anhydrous DMSO and 5 μl of each inhibitor preparation were aliquoted into each of three wells of a 96-well plate. Recombinant human calpain I, prepared by the method of Meyer et al. (Biochem. J. 1996, 314: 511–519; incorporated herein by reference in its entirety), was diluted into assay buffer (i.e., 50 mM Tris, 50 mM NaCl, 1 mM EDTA, 1 mM EGTA, and 5 mM β-mercaptoethanol, pH 7.5, including 0.2 mM Succ-Leu-Tyr-MNA), and 175 μl was aliquoted into the same wells containing the independent inhibitor stocks as well as to positive control wells containing 5 μl DMSO, but no compound. To start the reaction, 20 μl of 50 mM CaCl2 in assay buffer was added to all wells of the plate, excepting three, which were used as background signal baseline controls. Substrate hydrolysis was monitored every 5 minutes for a total of 30 minutes. Substrate hydrolysis in the absence of inhibitor was linear for up to 15 minutes.
Inhibition of calpain I activity was calculated as the percent decrease in the rate of substrate hydrolysis in the presence of inhibitor relative to the rate in its absence. Comparison between the inhibited and control rates was made within the linear range for substrate hydrolysis. The IC50s of inhibitors (concentration yielding 50% inhibition) were determined from the percent decrease in rates of substrate hydrolysis in the presence of five to seven different concentrations of the test compound. The results were plotted as percent inhibition versus log inhibitor concentration, and the IC50 was calculated by fitting the data to the four-parameter logistic equation shown below using the program GraphPad Prism (GraphPad Software, Inc., San Diego, Calif.). y=d+[(a−d)/(1+(x/c)^b)]
The parameters a, b, c, and d are defined as follows: a is % inhibition in the absence of inhibitor, b is the slope, c is the IC50, and d is the % inhibition at an infinite concentration of inhibitor.

The mark [1] stands for this setting: Table 5, achiral P2 mimetic α-ketoamides.

Regarding `O=C(NCCNS(=O)(=O)c1ccc(-c2cccc(CN3CCOCC3)c2)s1)C(=O)[C@H](Cc1ccccc1)NC(=O)c1c(Cl)cccc1Cl` [Compound 131], the IC50 under setting [1] was 29 nM.

For the molecule `O=C(CCCc1ccccc1)N[C@@H](Cc1ccccc1)C(=O)C(=O)NCCNS(=O)(=O)c1ccc(-c2ccccn2)s1` [Compound 149], the IC50 under setting [1] is 1500 nM.

Consider `CS(=O)(=O)N[C@H](COCc1ccccc1)C(=O)N[C@@H](Cc1ccccc1)C(=O)C(=O)NCCNS(=O)(=O)c1ccc(-c2cccc(CN3CCSCC3)c2)s1` [Compound 114], for which the IC50 (Table 4, α-ketoamides) is 33 nM.

Take `CS(=O)(=O)N[C@H](COCc1ccccc1)C(=O)N[C@@H](Cc1ccccc1)C(=O)C(=O)NCCNC(=NC#N)Oc1ccccc1` [Compound 53]: the concentration for half-maximal inhibition (IC50) (Table 4, α-ketoamides) turned out to be 15 nM.

As to `CC(C)c1ccccc1C(=O)N[C@@H](Cc1ccccc1)C(=O)C(=O)NCCNS(=O)(=O)c1ccc(-c2ccon2)s1` [Compound 139], under setting [1], the IC50 was determined as 168 nM.

Consider `CS(=O)(=O)N[C@H](COCc1ccccc1)C(=O)N[C@@H](Cc1ccccc1)C(=O)C(=O)NCCS(=O)(=O)Nc1ccccc1` [Compound 60], for which, where the note is “Table 4, α-ketoamides”, the IC50 is 47 nM.

`O=C(NCCNS(=O)(=O)c1ccc(-c2ccccn2)s1)C(=O)[C@H](Cc1ccccc1)NC(=O)c1cc(C(F)(F)F)cc(C(F)(F)F)c1` [Compound 126]: under setting [1], the 50% inhibitory concentration (IC50) was 600 nM.

Take `O=C(NCCNS(=O)(=O)c1ccc(-c2ccccn2)s1)C(=O)[C@H](Cc1ccccc1)NC(=O)c1c(F)cccc1F` [Compound 120]: the half-inhibitory concentration (IC50) under setting [1] turned out to be 20 nM.

In the case of `CS(=O)(=O)NC(COCc1ccccc1)C(=O)NC(Cc1ccccc1)C(=O)C(=O)NCCCCCNS(=O)(=O)c1ccc(-c2ccccn2)s1` (mixture of isomers) [Compound 92], the IC50 (Table 4, α-ketoamides) was 12 nM.

For `O=C(NCCNS(=O)(=O)c1ccc(-c2ccon2)s1)C(=O)[C@H](Cc1ccccc1)NC(=O)c1c(F)cccc1Cl` [Compound 140], the concentration for half-maximal inhibition (IC50) under setting [1] is 58 nM.

As to `CS(=O)(=O)N[C@H](COCc1ccccc1)C(=O)N[C@@H](Cc1ccccc1)C(=O)C(=O)NCCNS(=O)(=O)c1ccc(-c2cccc(CN3CCC(=O)CC3)c2)s1` [Compound 115], for the setting “Table 4, α-ketoamides”, the 50% inhibitory concentration (IC50) came to 16 nM.

For `CC(CCC(=O)N[C@@H](Cc1ccccc1)C(=O)C(=O)NCCNS(=O)(=O)c1ccc(-c2ccccn2)s1)c1ccccc1` (stereo partly shown) [Compound 148], the half-maximal inhibitory concentration (IC50) under setting [1] is 87 nM.

Consider `CS(=O)(=O)NC(COCc1ccccc1)C(=O)NC(Cc1ccccc1)C(=O)C(=O)NCCNS(=O)(=O)c1ccc(CN2CC=CC2)cc1` (mixture of isomers) [Compound 111], for which the IC50 (Table 4, α-ketoamides) turned out to be 73 nM.

Take `COc1ccc(Cl)c(C(=O)N[C@@H](Cc2ccccc2)C(=O)C(=O)NCCNS(=O)(=O)c2ccc(-c3ccccn3)s2)c1` [Compound 125]: the half-maximal inhibitory concentration (IC50) under setting [1] was found to be 65 nM.

On to `CS(=O)(=O)N[C@H](COCc1ccccc1)C(=O)N[C@@H](Cc1ccccc1)C(=O)C(=O)NCCNS(=O)(=O)CCc1ccncc1` [Compound 46], for which the IC50 (Table 2, linear α-ketoamides) stood at 144 nM.

In the case of `CC(=O)Nc1nc(C)c(S(=O)(=O)NCCNC(=O)C(=O)[C@H](Cc2ccccc2)NC(=O)[C@@H](COCc2ccccc2)NS(C)(=O)=O)s1` [Compound 96], the IC50 (Table 4, α-ketoamides) came out at 23 nM.

With `C[C@H](CNC(=O)C(=O)[C@H](Cc1ccccc1)NC(=O)[C@@H](COCc1ccccc1)NS(C)(=O)=O)NS(=O)(=O)c1ccccc1` [Compound 48], for the setting “Table 3, branched-chain α-ketoamides”, the half-inhibitory concentration (IC50) stood at 43 nM.

As to `CS(=O)(=O)N[C@H](COCc1ccccc1)C(=O)N[C@@H](Cc1ccccc1)C(=O)C(=O)NCCCS(=O)(=O)NN1CCOCC1` [Compound 80], the IC50 (Table 4, α-ketoamides) is 169 nM.

Regarding `Cc1cccc(C)c1C(=O)N[C@@H](Cc1ccccc1)C(=O)C(=O)NCCNS(=O)(=O)c1ccc(-c2ccccn2)s1` [Compound 127], the concentration for half-maximal inhibition (IC50) under setting [1] was 178 nM.

As for `CC(C)C[C@H](NC(=O)OCc1ccccc1)C(=O)N[C@@H](CC(C)C)C(=O)N[C@@H](Cc1ccccc1)C(=O)C(=O)NCCNS(=O)(=O)c1ccc(-c2ccccn2)s1` [Compound 88], for the setting “Table 4, α-ketoamides”, the 50% inhibitory concentration (IC50) was 33 nM.

Take `CS(=O)(=O)N[C@H](COCc1ccccc1)C(=O)N[C@@H](Cc1ccccc1)C(=O)C(=O)NCCNS(=O)(=O)c1ccc(-c2ccccc2)s1` [Compound 29]: for the setting “Table 2, linear α-ketoamides”, the IC50 is 14 nM.

In the case of `CS(=O)(=O)N[C@H](COCc1ccccc1)C(=O)N[C@@H](Cc1ccccc1)C(=O)C(=O)NCCNS(=O)(=O)c1ccc(-c2ccc(N)cc2)cc1` [Compound 40], the IC50 (Table 2, linear α-ketoamides) worked out at 63 nM.

As to `CS(=O)(=O)N[C@H](COCc1ccccc1)C(=O)N[C@@H](Cc1ccccc1)C(=O)C(=O)NCCNS(=O)(=O)c1ccc(-c2cccc(C=O)c2)s1` [Compound 52], the IC50 (Table 4, α-ketoamides) amounted to 5 nM.

Regarding `O=C(NCCNS(=O)(=O)c1ccc(-c2ccccn2)s1)C(=O)[C@H](Cc1ccccc1)NC(=O)c1c(Cl)cccc1Cl` [Compound 118], under setting [1], the IC50 was 36 nM.

As to `CN(Cc1cccc(-c2ccc(S(=O)(=O)NCCNC(=O)C(=O)[C@H](Cc3ccccc3)NC(=O)[C@@H](COCc3ccccc3)NS(C)(=O)=O)s2)c1)C1CCCCC1` [Compound 102], the IC50 (Table 4, α-ketoamides) turned out to be 36 nM.

Take `CS(=O)(=O)N[C@H](COCc1ccccc1)C(=O)N[C@@H](Cc1ccccc1)C(=O)C(=O)NCCNS(=O)(=O)c1ccccc1` [Compound 9]: where the note is “Table 2, linear α-ketoamides”, the IC50 is 16 nM.

As for `O=C(NCCNS(=O)(=O)c1ccc(-c2ccon2)s1)C(=O)[C@H](Cc1ccccc1)NC(=O)c1c(F)cccc1F` [Compound 136], the IC50 under setting [1] came out at 62 nM.

Regarding `CC(=O)c1cccc(-c2ccc(S(=O)(=O)NCCNC(=O)C(=O)C(Cc3ccccc3)NC(=O)C(COCc3ccccc3)NS(C)(=O)=O)s2)c1` (mixture of isomers) [Compound 77], under “Table 4, α-ketoamides”, the IC50 is 10 nM.

For the molecule `N#Cc1cccc(-c2ccc(S(=O)(=O)NCCNC(=O)C(=O)[C@H](Cc3ccccc3)NC(=O)c3c(F)cccc3F)s2)c1` [Compound 135], under setting [1], the IC50 came out at 22 nM.

Take `Cc1cccc(-c2ccc(S(=O)(=O)NCCNC(=O)C(=O)C(Cc3ccccc3)NC(=O)C(COCc3ccccc3)NS(C)(=O)=O)s2)c1` (mixture of isomers) [Compound 75]: under “Table 4, α-ketoamides”, the IC50 stood at 36 nM.

In the case of `CS(=O)(=O)N[C@H](COCc1ccccc1)C(=O)N[C@@H](Cc1ccccc1)C(=O)C(=O)NCCS(=O)(=O)Nc1ccc(C(F)(F)F)cc1` [Compound 61], under “Table 4, α-ketoamides”, the IC50 was 32 nM.

`Cn1nc(-c2ccc(S(=O)(=O)NCCNC(=O)C(=O)C(Cc3ccccc3)NC(=O)C(COCc3ccccc3)NS(C)(=O)=O)s2)cc1C(F)(F)F` (mixture of isomers) [Compound 34]: where the note is “Table 2, linear α-ketoamides”, the IC50 was 25 nM.

Turning to `CS(=O)(=O)N[C@H](COCc1ccccc1)C(=O)N[C@@H](Cc1ccccc1)C(=O)C(=O)NCCNS(=O)(=O)c1ccc(-c2cccc(CN3CCCCC3)c2)s1` [Compound 95], the IC50 (Table 4, α-ketoamides) worked out at 30 nM.

Turning to `CS(=O)(=O)N[C@H](COCc1ccccc1)C(=O)N[C@@H](Cc1ccccc1)C(=O)C(=O)NCCNS(=O)(=O)c1ccc(N)cc1` [Compound 22], the IC50 (Table 2, linear α-ketoamides) worked out at 42 nM.

Consider `CS(=O)(=O)N[C@H](COCc1ccccc1)C(=O)N[C@@H](Cc1ccccc1)C(=O)C(=O)NCCNS(=O)(=O)c1ccc(-c2ccon2)s1` [Compound 32], for which the 50% inhibitory concentration (IC50) (Table 2, linear α-ketoamides) is 10 nM.

`COc1ccc(-c2ccc(S(=O)(=O)NCCNC(=O)C(=O)C(Cc3ccccc3)NC(=O)C(COCc3ccccc3)NS(C)(=O)=O)s2)cc1` (mixture of isomers) [Compound 82]: under “Table 4, α-ketoamides”, the half-inhibitory concentration (IC50) turned out to be 13 nM.

For `N#Cc1cccc(-c2ccc(S(=O)(=O)NCCNC(=O)C(=O)[C@H](Cc3ccccc3)NC(=O)c3c(Cl)cccc3Cl)s2)c1` [Compound 133], the IC50 under setting [1] amounted to 11 nM.

What is called IC50 is the midpoint of a concentration-inhibition curve.
